Experimental data as given in patent US20260183275A1, “SUBSTITUTED QUINOLONE COMPOUNDS USEFUL AS INHIBITORS OF TLR9” (Bristol-Myers Squibb Company, priority 2022, published 2026).

Legend:
Type in all cases: cell-based
[1] = target: T1, human TLR9 (Homo sapiens, UniProt Q9NR96); assay: TLR9 inhibition reporter assay (HEK-Blue cells, SEAP reporter); details: HEK-Blue cells overexpressing human TLR9; stimulated with ODN2006 5 nM; SEAP read after 22 hour; dose range 0.05 nM-50 μM
T1 construct: host or cells: HEK-Blue cells
T1 sequence (Q9NR96 26-1032): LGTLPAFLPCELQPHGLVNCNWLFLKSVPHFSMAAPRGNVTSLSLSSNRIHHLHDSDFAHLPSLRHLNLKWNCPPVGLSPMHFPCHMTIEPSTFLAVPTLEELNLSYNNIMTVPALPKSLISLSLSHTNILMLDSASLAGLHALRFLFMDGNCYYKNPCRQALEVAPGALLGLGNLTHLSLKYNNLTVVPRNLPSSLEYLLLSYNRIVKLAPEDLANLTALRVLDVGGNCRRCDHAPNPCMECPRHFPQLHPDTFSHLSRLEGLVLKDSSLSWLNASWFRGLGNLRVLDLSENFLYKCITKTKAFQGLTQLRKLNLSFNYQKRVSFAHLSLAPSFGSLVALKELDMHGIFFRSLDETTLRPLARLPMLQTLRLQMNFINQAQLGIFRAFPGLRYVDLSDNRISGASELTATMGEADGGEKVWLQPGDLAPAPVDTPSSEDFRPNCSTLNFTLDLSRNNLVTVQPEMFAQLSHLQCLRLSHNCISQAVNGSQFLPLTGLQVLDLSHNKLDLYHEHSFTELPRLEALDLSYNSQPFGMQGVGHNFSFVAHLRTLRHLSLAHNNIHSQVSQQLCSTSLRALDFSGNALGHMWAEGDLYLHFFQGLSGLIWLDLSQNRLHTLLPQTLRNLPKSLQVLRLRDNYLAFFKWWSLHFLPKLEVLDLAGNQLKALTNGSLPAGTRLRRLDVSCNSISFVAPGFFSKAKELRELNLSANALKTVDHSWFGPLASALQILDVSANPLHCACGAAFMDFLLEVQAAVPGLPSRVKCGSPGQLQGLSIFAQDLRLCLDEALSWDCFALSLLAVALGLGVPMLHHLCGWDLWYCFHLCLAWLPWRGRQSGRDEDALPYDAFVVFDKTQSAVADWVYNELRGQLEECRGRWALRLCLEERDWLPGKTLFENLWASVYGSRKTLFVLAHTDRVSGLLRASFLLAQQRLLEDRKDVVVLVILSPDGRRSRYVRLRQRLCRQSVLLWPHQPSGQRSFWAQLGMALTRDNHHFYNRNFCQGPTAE
Method in brief: (§1)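 HEK-Blue cells with NF-κB/AP-1-driven SEAP pre-treated 30 min with compounds (0.05 nM-50 μM), then stimulated with gardiquimod 7.5 μM (TLR7), R848 15.9 μM (TLR8) or ODN2006 5 nM (TLR9). SEAP read after 22 h at 37° C; % inhibition relative to agonist+DMSO and reference-inhibitor wells.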

[2] = target: T2, human TLR7 (Homo sapiens, UniProt Q9NYK1); assay: TLR7 inhibition reporter assay (HEK-Blue cells, SEAP reporter); details: HEK-Blue cells overexpressing human TLR7; stimulated with gardiquimod 7.5 μM; SEAP read after 22 hour; dose range 0.05 nM-50 μM
T2 construct: host or cells: HEK-Blue cells
T2 sequence (Q9NYK1 27-1049): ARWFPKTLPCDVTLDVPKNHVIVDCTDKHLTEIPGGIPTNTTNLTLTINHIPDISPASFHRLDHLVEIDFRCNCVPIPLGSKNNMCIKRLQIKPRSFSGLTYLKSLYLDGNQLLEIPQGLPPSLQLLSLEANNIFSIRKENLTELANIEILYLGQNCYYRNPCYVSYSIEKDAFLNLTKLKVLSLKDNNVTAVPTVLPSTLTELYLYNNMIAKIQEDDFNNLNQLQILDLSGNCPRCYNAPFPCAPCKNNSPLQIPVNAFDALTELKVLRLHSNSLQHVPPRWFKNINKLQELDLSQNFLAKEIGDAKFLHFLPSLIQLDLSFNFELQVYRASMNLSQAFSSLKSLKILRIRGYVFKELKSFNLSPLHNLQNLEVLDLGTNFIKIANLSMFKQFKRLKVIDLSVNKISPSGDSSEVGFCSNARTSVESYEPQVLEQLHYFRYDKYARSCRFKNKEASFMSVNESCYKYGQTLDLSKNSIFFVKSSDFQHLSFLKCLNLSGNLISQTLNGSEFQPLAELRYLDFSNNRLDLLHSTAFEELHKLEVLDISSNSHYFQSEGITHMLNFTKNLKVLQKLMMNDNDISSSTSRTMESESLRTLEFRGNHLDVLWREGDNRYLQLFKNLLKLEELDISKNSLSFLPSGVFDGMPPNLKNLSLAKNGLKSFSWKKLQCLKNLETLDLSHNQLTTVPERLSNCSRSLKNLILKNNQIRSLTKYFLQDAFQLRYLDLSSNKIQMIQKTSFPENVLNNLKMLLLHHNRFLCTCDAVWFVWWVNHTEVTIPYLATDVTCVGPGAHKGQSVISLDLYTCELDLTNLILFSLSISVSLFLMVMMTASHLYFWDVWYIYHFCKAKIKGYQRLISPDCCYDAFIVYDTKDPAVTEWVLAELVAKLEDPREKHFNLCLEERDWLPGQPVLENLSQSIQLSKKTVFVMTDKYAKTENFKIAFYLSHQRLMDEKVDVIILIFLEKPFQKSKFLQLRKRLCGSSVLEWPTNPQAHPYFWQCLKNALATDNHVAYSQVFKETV
Method in brief: as §1

[3] = target: T3, human TLR8 (Homo sapiens, UniProt Q9NR97); assay: TLR8 inhibition reporter assay (HEK-Blue cells, SEAP reporter); details: HEK-Blue cells overexpressing human TLR8; stimulated with R848 15.9 μM; SEAP read after 22 hour; dose range 0.05 nM-50 μM
T3 construct: host or cells: HEK-Blue cells
T3 sequence (Q9NR97 27-1041): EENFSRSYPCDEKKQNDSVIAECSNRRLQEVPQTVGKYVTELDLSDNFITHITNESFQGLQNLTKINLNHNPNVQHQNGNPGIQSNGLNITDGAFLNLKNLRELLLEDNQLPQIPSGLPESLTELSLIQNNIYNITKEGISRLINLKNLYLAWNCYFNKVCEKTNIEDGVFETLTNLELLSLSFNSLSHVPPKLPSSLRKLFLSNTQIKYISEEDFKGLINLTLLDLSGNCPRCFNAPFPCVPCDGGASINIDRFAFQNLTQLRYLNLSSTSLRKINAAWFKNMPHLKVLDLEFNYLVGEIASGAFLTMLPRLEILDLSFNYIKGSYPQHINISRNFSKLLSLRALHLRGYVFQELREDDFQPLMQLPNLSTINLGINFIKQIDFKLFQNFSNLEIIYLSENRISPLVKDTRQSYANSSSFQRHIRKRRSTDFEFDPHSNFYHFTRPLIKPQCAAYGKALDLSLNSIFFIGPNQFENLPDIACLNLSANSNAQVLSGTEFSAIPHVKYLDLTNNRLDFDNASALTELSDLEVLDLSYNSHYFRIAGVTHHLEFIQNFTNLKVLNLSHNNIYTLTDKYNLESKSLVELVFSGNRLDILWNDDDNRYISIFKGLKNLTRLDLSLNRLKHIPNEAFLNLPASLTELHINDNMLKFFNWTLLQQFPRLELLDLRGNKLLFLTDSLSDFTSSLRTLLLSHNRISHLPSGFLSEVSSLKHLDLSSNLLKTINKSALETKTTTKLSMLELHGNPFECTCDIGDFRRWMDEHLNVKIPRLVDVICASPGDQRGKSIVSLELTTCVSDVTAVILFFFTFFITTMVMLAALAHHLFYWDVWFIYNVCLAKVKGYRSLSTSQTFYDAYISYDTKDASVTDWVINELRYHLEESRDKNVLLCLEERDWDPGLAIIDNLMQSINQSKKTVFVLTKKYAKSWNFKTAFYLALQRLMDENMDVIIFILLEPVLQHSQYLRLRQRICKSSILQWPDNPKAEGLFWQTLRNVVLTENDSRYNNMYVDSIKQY
Method in brief: as §1

| Compound | IC50 [1] [nM] | IC50 [2] [nM] | IC50 [3] [nM] |
| --- | --- | --- | --- |
| CC(C)N1CCN(c2ccc(-c3ccc4[nH]c(=O)c(-c5ccc(N6CC[C@@H](O)C6)cc5)cc4c3)cc2)CC1 [Example 61, 3-{4-[(3R)-3-hydroxypyrrolidin-1-yl]phenyl}-6-{4-[4-(propan-2-yl)piperazin-1-yl]phenyl}-1,2-dihydroquinolin-2-one] | 1640 | ≥ 50000 | ≥ 50000 |
| CCc1c(-c2ccc(OC)c(OC)c2)c(=O)[nH]c2ccc(C3CCN(C4CCN(C(C)C)CC4)CC3)cc12 [Example 63, 3-(3,4-dimethoxyphenyl)-4-ethyl-6-[1′-(propan-2-yl)-[1,4′-bipiperidine]-4-yl]-1,2-dihydroquinolin-2-one] | 27 | 2810 | 11000 |
| CC(C)N1CCC(N2CCC(c3ccc4[nH]c(=O)c(-c5ccccc5)cc4c3)CC2)CC1 [Example 64, 3-phenyl-6-[1′-(propan-2-yl)-[1,4′-bipiperidine]-4-yl]-1,2-dihydroquinolin-2-one] | 30 | 1480 | ≥ 50000 |
| CC(C)N1CCC(c2ccc(-c3ccc4[nH]c(=O)c(-c5ccc(S(N)(=O)=O)cc5)cc4c3)cc2)CC1 [Example 65, 4-(2-oxo-6-{4-[1-(propan-2-yl)piperidin-4-yl]phenyl}-1,2-dihydroquinolin-3-yl)benzene-1-sulfonamide] | 55 | 342 | 4870 |
| CCc1c(-c2ccc(S(C)(=O)=O)cc2)c(=O)[nH]c2ccc(C3CCN(C4CCN(C(C)C)CC4)CC3)cc12 [Example 66, 4-ethyl-3-(4-methanesulfonylphenyl)-6-[1′-(propan-2-yl)-[1,4′-bipiperidine]-4-yl]-1,2-dihydroquinolin-2-one] | 57 | 9970 | ≥ 50000 |
| CC(C)N1CCC(c2ccc(-c3ccc4[nH]c(=O)c(-c5cccc(NS(C)(=O)=O)c5)cc4c3)cc2)CC1 [Example 67, N-[3-(2-oxo-6-{4-[1-(propan-2-yl)piperidin-4-yl]phenyl}-1,2-dihydroquinolin-3-yl)phenyl]methanesulfonamide] | 67 | 817 | ≥ 50000 |
| CC(C)N1CCC(c2ccc(-c3ccc4c(c3)cc(-c3ccc(S(C)(=O)=O)cc3)c(=O)n4C)cc2)CC1 [Example 68, 3-(4-methanesulfonylphenyl)-1-methyl-6-{4-[1-(propan-2-yl)piperidin-4-yl]phenyl}-1,2-dihydroquinolin-2-one] | 70 | 7960 | 475 |

Now from value to compound:

| IC50 [1] [nM] | IC50 [2] [nM] | IC50 [3] [nM] | Compound |
| --- | --- | --- | --- |
| 615 | 1220 | 83 | CC(=O)Nc1ccc(-c2cc3cc(-c4ccc(N5CCN(C(C)C)CC5)cc4)ccc3n(C)c2=O)cc1 [Example 57, N-[4-(1-methyl-2-oxo-6-{4-[4-(propan-2-yl)piperazin-1-yl]phenyl}-1,2-dihydroquinolin-3-yl)phenyl]acetamide] |
| 538 | 32600 | 1390 | CC(C)N1CCN(c2ccc(-c3ccc4c(c3)cc(-c3ccccc3)c(=O)n4C)cc2)CC1 [Example 58, 1-methyl-3-phenyl-6-{4-[4-(propan-2-yl)piperazin-1-yl]phenyl}-1,2-dihydroquinolin-2-one] |
| 736 | ≥ 50000 | ≥ 50000 | CC(C)N1CCN(c2ccc(-c3ccc4[nH]c(=O)c(-c5ccc(C(=O)N(C)C)cc5)cc4c3)cc2)CC1 [Example 60, N,N-dimethyl-4-(2-oxo-6-{4-[4-(propan-2-yl)piperazin-1-yl]phenyl}-1,2-dihydroquinolin-3-yl)benzamide] |
| 1760 | ≥ 50000 | ≥ 50000 | CC(C)N1CCN(c2ccc(-c3ccc4[nH]c(=O)c(-c5ccc(C(=O)O)cc5)cc4c3)cc2)CC1 [Example 62, 4-(2-oxo-6-{4-[4-(propan-2-yl)piperazin-1-yl]phenyl}-1,2-dihydroquinolin-3-yl)benzoic acid] |
